Test results published in patent US6762188B1, “Pharmaceutically active benzoquinazoline compounds” (SmithKline Beecham Corporation, priority 1990, dated 2004).

What follows are compounds tested on SW480 human colon adenocarcinoma (assay: Tumor cell culture cytotoxicity (MTT dye reduction), SW480). Conditions: Homo sapiens, SW480, read-out: Cell Culture Cytotoxicity CCCT SW-480, Table F, fully aromatic p-aminobenzoylglutamates.
Procedure: SW480 and WiDr colon adenocarcinomas, MCF-7 breast adenocarcinoma, A427 lung carcinoma and MOLT-4 T-cell leukemia were used for the primary screening of compounds. […] MCF-7, A427 and SW480 were grown in the above medium further supplemented with sodium pyruvate.
Cells are seeded into 96-well plates using a Perkin-Elmer Pro/pette. SW480 and A427 were seeded at 8,000 cells per well, MCF-7 at 10,000, Widr at 7500, and MOLT-4 at 12,500 cells per well, all in 150 µl of medium. Prior to the addition of drugs, cultures were incubated for 24 hrs at 37°. Compounds were added at 2×concentration in 150 l of medium and each concentration was assayed in triplicate. If DMSO or ethanol were used to solubilize compounds, appropriate controls were run if the concentration exceeded 0.01%. Cultures were incubated for 72 hours (96 hours for SW480 and MCF-7) in a 37° humidified incubator at 5% CO2. Inhibition of cell growth was measured using the MTT dye reduction assay.
Cell dilutions for a standard curve were prepared from a 72 hour log-phase culture. Serial dilutions were seeded in triplicate in 96-well plates and incubated at 37 degrees for one hour. MTT (3-(4,5-dimethylthiazol-2-yl)-2,5-diphenyltetrazolium bromide) was dissolved in PBS at 5 mg/ml and sonicated for 30 seconds. Using the Perkin Elmer Pro/pette, 200 μl of medium was removed and 100 μl of MTT added to the wells of the standard curve and test plates. Suspension cultures were spun for 5 min at 1000 rpm before removing medium from the wells. Plates were incubated for 1 hour at 370 on a platform shaker. Following this incubation 100 ml of medium was removed from the wells and 100 μl of DMSO added to each well. The plates were sonicated for approximately 10 seconds to solubilize the precipitated formazan dye. The absorbance of each well was measured using a Titertek Multiscan MC microtiter plate reader at 570 nm with a reference wavelength of 750 nm. Data was collected using a Mariachi Seed-2 and stored and analyzed using an IBM-AT and Lotus 1-2-3 software.
With `Cc1nc2ccc3ccc(CN(C)c4ccc5c(c4)CN([C@@H](CCC(=O)O)C(=O)O)C5=O)cc3c2c(=O)[nH]1` [(S)-2-(5-(((1,2-Dihydro-3-methyl-1-oxobenzo[f]quinazolin-9-yl)methyl)methylamino)-1-oxo-2-isoindolinyl)glutaric acid] the IC50 was 500 nM.
In the case of `Cc1nc2ccc3ccc(CCc4ccc(C(=O)N[C@@H](CCC(=O)O)C(=O)O)cc4)cc3c2c(=O)[nH]1` [N-(4-(2-(1,2-Dihydro-3-methyl-1-oxobenzo[f]quinazolin-9-yl)ethyl)benzoyl)-L-glutamic acid], the IC50 is reported as 9000 nM.

Same assay, conditions: Homo sapiens, SW480, read-out: Cell Culture Cytotoxicity CCCT SW-480, Table G, dihydrobenzoquinazoline p-aminobenzoylglutamates
For `C#CCN(c1ccc(C(=O)N[C@@H](CCC(=O)O)C(=O)O)cc1)S(=O)(=O)c1ccc2c(c1)CCc1nc(N)[nH]c(=O)c1-2` [N-(4-(((3-Amino-1,2,5,6-tetrahydro-1-oxobenzo(f)quinazolin-8-yl)sulfonyl)(2-propynyl)amino)benzoyl)-L-glutamic acid], the IC50 was over 50000 nM.

Same assay, conditions: Homo sapiens, SW480, read-out: Tumor Cell Culture Cytotoxicity IC50 SW480, Table D, 5,6-dihydro 3-methyl derivatives
Work on `Cc1nc2c(c(=O)[nH]1)-c1cc(S(=O)(=O)Nc3ccc(F)cc3)ccc1CC2` [4′-Fluoro-1,2,5,6-tetrahydro-3-methyl-1-oxobenzo(f)quinazoline-9-sulfonanilide] yielded an IC50 of 25000 nM.

Same assay, conditions: Homo sapiens, SW480, read-out: Tumor Cell Culture Cytotoxicity IC50 SW480, Table E, fully aromatic 3-methyl derivatives
Compound `Cc1nc2ccc3ccc(CNc4ccc(C#N)cc4)cc3c2c(=O)[nH]1` [4-(((1,2-Dihydro-3-methyl-1-oxobenzo(f)quinazolin-9-yl)methyl)amino)benzonitrile] has an IC50 of 30 nM.

Same assay, conditions: read-out: Cell Culture Cytotoxicity CCCT SW-480; Table F, fully aromatic p-aminobenzoylglutamates
In the case of `Cc1nc2ccc3ccc(CNc4ccc5c(=O)n([C@@H](CCC(=O)O)C(=O)O)sc5c4)cc3c2c(=O)[nH]1` [CH3,9-CH2NH, 2′-SNglu, (S)-2-(2.3-Dihydro-6-(((1,2-dihydro-3-methyl-1-oxobenzo[f]quinazolin-9-yl)methyl)amino)-3-oxo-1,2-benxisothiazol-2-yl)glutaric acid], the IC50 is reported as 2000 nM.

Same assay, conditions: read-out: Tumor Cell Culture Cytotoxicity IC50 SW480; Table E, fully aromatic 3-methyl derivatives
`Cc1nc2ccc3ccc(CNc4ccc(C(=O)N[C@@H](CCC(=O)O)C(=O)O)s4)cc3c2c(=O)[nH]1` [N-((5-(((1,2-Dihydro-3-methyl-1-oxobenzo[f]quinazolin-9-yl)methyl)amino-2-thienyl)carbonyl)-L-glutamic acid] gave an IC50 of 100 nM.

Each compound was assayed against T1, Mammalian Thymidylate Synthase (Homo sapiens, UniProt P04818) (assay: Thymidylate synthase inhibition, tritium release assay). Conditions: not given.
T1 construct: made in house; host or cells: Escherichia coli
T1 sequence (P04818 whole entry): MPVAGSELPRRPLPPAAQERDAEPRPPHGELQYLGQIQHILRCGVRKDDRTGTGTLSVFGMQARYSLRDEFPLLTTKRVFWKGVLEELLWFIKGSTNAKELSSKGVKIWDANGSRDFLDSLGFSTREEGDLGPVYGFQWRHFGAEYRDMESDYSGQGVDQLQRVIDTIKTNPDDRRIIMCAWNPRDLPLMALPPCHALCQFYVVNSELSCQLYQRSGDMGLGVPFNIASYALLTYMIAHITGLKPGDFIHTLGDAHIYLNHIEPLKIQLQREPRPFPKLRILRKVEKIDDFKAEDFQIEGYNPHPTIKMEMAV
Format: biochemical
`Nc1nc2ccc3cc(F)ccc3c2c(=O)[nH]1` [3-Amino-8-fluorobenzo(f)quinazolin-1(2H)-one] was tested, and the IC50 was 1000 to 300000 nM.
`Nc1nc2ccc3ccc(Cl)cc3c2c(=O)[nH]1` [3-Amino-9-chlorobenzo(f)quinazolin-1(2H)-one] showed an IC50 of under 1000 nM.
For `CN(C)S(=O)(=O)c1ccc2ccc3nc(N)[nH]c(=O)c3c2c1` [3-Amino-N,N-dimethyl-1,2-dihydro-1-oxobenzo(f)quinazoline-9-sulfonamide], the IC50 was 1000 to 300000 nM.
In the case of `Nc1nc2ccc3cc(Cl)c(Cl)cc3c2c(=O)[nH]1` [3-Amino-8,9-dichlorobenzo(f)quinazolin-1(2H)-one], the IC50 is reported as under 1000 nM.
Work on `Nc1nc(O)c2c(n1)CCc1cc([N+](=O)[O-])ccc1-2` [3-Amino-5,6-dihydro-8-nitro(f)quinazolin-1(2H)-one] yielded an IC50 of 1000 to 300000 nM.
With `Cc1nc2ccc3ccc(S(=O)(=O)Nc4ccc(C(=O)N[C@@H](CCC(=O)O)C(=O)O)cc4)cc3c2c(=O)[nH]1` [N-(4-((1,2-Dihydro-3-methyl-1-oxabenzo(f)quinazolin-9-yl)sulfonamido)benzoyl)-L-glutamic acid] the IC50 was under 1000 nM.
`C#Cc1ccc2ccc3nc(N)[nH]c(=O)c3c2c1` [3-Amino-9-ethynylbenzo(f)quinazolin-1(2H)-one] gave an IC50 of under 1000 nM.
Work on `Nc1nc2ccc3ccc(NS(=O)(=O)c4ccc(C(=O)O)cc4)cc3c2c(=O)[nH]1` [4-(((3-Amino-1,2-dihydro-1-oxobenzo(f)quinazolin-9-yl)amino)sulfonyl)benzoic acid] yielded an IC50 of under 1000 nM.
`Nc1nc2ccc3cc([N+](=O)[O-])c(Br)cc3c2c(=O)[nH]1` [3-Amino-9-bromo-8-nitrobenzo(f)quinazolin-1(2H)-one] was tested, and the IC50 was 1000 to 300000 nM.
`COc1ccc2ccc3nc(N)[nH]c(=O)c3c2c1` [3-Amino-9-methoxybenzo(f)quinazolin-1(2H)-one] gave an IC50 of 1000 to 300000 nM.
For `Cc1nc2c(c(=O)[nH]1)-c1cc(S(=O)(=O)Cl)ccc1CC2` [1,2,5,6-Tetrahydro-3-methyl-1-oxobenzo(f)quinazoline-9-sulfonylchloride], the IC50 was 1000 to 300000 nM.
Compound `Nc1nc(O)c2c(ccc3ccc(F)cc32)n1` [3-Amino-9-fluorobenzo(f)quinazolin-1(2H)-one] has an IC50 of under 1000 nM.
`Nc1nc2c(c(=O)[nH]1)-c1ccc(S(N)(=O)=O)cc1CC2` [3-Amino-1,2,5,6-tetrahydro-1-oxobenzo(f)quinazoline-8-sulfonamide] was tested, and the IC50 was 1000 to 300000 nM.
`Nc1nc(O)c2c(ccc3ccc(Br)cc32)n1` [3-Amino-9-bromobenzo(f)quinazolin-1(2H)-one] showed an IC50 of under 1000 nM.
`Nc1nc(O)c2c(ccc3cc(N)c(Br)cc32)n1` [3,8-Diamino-9-bromobenzo(f)quinazolin-1(2H)-one] showed an IC50 of under 1000 nM.
Work on `CCOc1ccc2ccc3nc(N)[nH]c(=O)c3c2c1` [3-Amino-9-ethoxybenzo(f)quinazolin-1(2H)-one] yielded an IC50 of 1000 to 300000 nM.
With `Nc1nc(O)c2c(ccc3ccc(I)cc32)n1` [3-Amino-9-iodobenzo(f)quinazolin-1(2H)-one] the IC50 was under 1000 nM.

Same assay, conditions: Table A; vs. mammalian enzymes; read-out: I50
`Nc1nc2ccc3cc([N+](=O)[O-])cc([N+](=O)[O-])c3c2c(=O)[nH]1` [3-Amino-8,10-dinitrobenzo(f)quinazolin-1(2H)-one] was tested, and the IC50 was 1000 to 300000 nM.
`Nc1nc2c(c(=O)[nH]1)-c1cccc(F)c1CC2` [3-Amino-7-fluoro-5,6-dihydrobenzo(f)quinazolin-1(2H)-one] gave an IC50 of 1000 to 300000 nM.
`Nc1nc2ccc3cccc([N+](=O)[O-])c3c2c(=O)[nH]1` [3-Amino-10-nitrobenzo(f)quinazolin-1(2H)-one] showed an IC50 of 1000 to 300000 nM.
In the case of `Nc1nc(O)c2c(n1)CCc1c(I)cccc1-2` [3-Amino-5,6-dihydro-7-iodobenzo(f)quinazolin-1(2H)-one], the IC50 is reported as 1000 to 300000 nM.
With `Nc1nc(O)c2c(ccc3cccc(N)c32)n1` [3,10-diaminobenzo(f)quinazolin-1(2H)-one] the IC50 was 1000 to 300000 nM.
`Nc1cc(N)c2c(ccc3nc(N)[nH]c(=O)c32)c1` [3,8,10-Triaminobenzo(f)quinazolin-1(2H)-one] showed an IC50 of 1000 to 300000 nM.
With `Cc1cccc2c1CCc1nc(N)[nH]c(=O)c1-2` [3-Amino-5,6-dihydro-7-methylbenzo(f)quinazolin-1(2H)-one] the IC50 was 1000 to 300000 nM.
Work on `Nc1ccc2c(c1)-c1c(nc(N)[nH]c1=O)CC2` [3,9-Diamino-5,6-dihydrobenzo(f)quinazolin-1(2H)-one] yielded an IC50 of 1000 to 300000 nM.
With `Cc1ccc2c(c1)-c1c(O)nc(N)nc1CC2` [3-Amino-5,6-dihydro-9-methylbenzo(f)quinazolin-1(2H)-one] the IC50 was under 1000 nM.
With `Nc1nc2c(c(=O)[nH]1)-c1ccc(Cl)cc1CC2` [3-Amino-8-chloro-5,6-dihydrobenzo(f)quinazolin-1(2H)-one] the IC50 was 1000 to 300000 nM.
With `CC1Cc2nc(N)nc(O)c2-c2ccccc21` (centres unmarked) [3-Amino-5,6-dihydro-6-methylbenzo(f)quinazolin-1(2H)-one] the IC50 was 1000 to 300000 nM.
For `Cc1cc(C)c2ccc3nc(N)[nH]c(=O)c3c2c1` [3-Amino-7,9-dimethylbenzo(f)quinazolin-1(2H)-one], the IC50 was 1000 to 300000 nM.
With `Nc1nc(O)c2c(ccc3c(N)cccc32)n1` [3,7-Diaminobenzo(f)quinazolin-1(2H)-one] the IC50 was 1000 to 300000 nM.
For `CC1Cc2nc(N)nc(O)c2-c2cc(Cl)ccc21` (centres unmarked) [3-Amino-9-chloro-5,6-dihydro-6-methylbenzo(f)quinazolin-1(2H)-one], the IC50 was under 1000 nM.
Work on `Nc1nc2c(c(=O)[nH]1)-c1cccc(Br)c1CC2` [3-Amino-7-bromo-5,6-dihydrobenzo(f)quinazolin-1(2H)-one] yielded an IC50 of 1000 to 300000 nM.
For `Nc1ccc2c(c1)CCc1nc(N)[nH]c(=O)c1-2` [3,8-Diamino-5,6-dihydrobenzo(f)quinazolin-1(2H)-one], the IC50 was 1000 to 300000 nM.
With `Nc1nc2c(c(=O)[nH]1)-c1cc(O)ccc1CC2` [3-Amino-5,6-dihydro-9-hydroxybenzo(f)quinazolin-1(2H)-one] the IC50 was 1000 to 300000 nM.
Compound `Cc1cc2nc(N)[nH]c(=O)c2c2ccc(Cl)cc12` [3-Amino-8-chloro-6-methylbenzo(f)quinazolin-1(2H)-one] has an IC50 of 1000 to 300000 nM.
With `Nc1nc(O)c2c(ccc3cc(Br)c([N+](=O)[O-])cc32)n1` [3-Amino-8-bromo-9-nitrobenzo(f)quinazolin-1(2H)-one] the IC50 was 1000 to 300000 nM.
For `Nc1nc(O)c2c(cc(CO)c3ccccc32)n1` [3-Amino-6-(hydroxymethyl)benzo(f)quinazolin-1(2H)-one], the IC50 was 1000 to 300000 nM.
`CCSc1ccc2ccc3nc(N)nc(O)c3c2c1` [3-Amino-9-(ethylthio)benzo(f)quinazolin-1(2H)-one] was tested, and the IC50 was 1000 to 300000 nM.
`Nc1nc2ccc3cc(Cl)ccc3c2c(=O)[nH]1` [3-Amino-8-chlorobenzo(f)quinazolin-1(2H)-one] was tested, and the IC50 was 1000 to 300000 nM.
Compound `CC1Cc2nc(N)nc(O)c2-c2ccc(Cl)cc21` (centres unmarked) [3-Amino-8-chloro-5,6-dihydro-6-methylbenzo(f)quinazolin-1(2H)-one] has an IC50 of 1000 to 300000 nM.
`CC1(C)Cc2nc(N)nc(O)c2-c2ccccc21` [3-Amino-5,6-dihydro-6,6-dimethylbenzo(f)quinazolin-1(2H)-one] showed an IC50 of 1000 to 300000 nM.
In the case of `Cc1cc(C)c2c(c1)-c1c(nc(N)[nH]c1=O)CC2` [3-Amino-5,6-dihydro-7,9-dimethylbenzo(f)quinazolin-1(2H)-one], the IC50 is reported as 1000 to 300000 nM.
`Cc1nc2c(c(=O)[nH]1)-c1cccc(Cl)c1CC2` [7-Chloro-5,6-dihydro-3-methylbenzo(f)quinazolin-1(2H)-one] gave an IC50 of 1000 to 300000 nM.
With `Cc1cc2nc(N)[nH]c(=O)c2c2ccccc12` [3-Amino-6-methylbenzo(f)quinazolin-1(2H)-one] the IC50 was 1000 to 300000 nM.
`CSc1ccc2ccc3nc(N)nc(O)c3c2c1` [3-Amino-9-(methylthio)benzo(f)quinazolin-1(2H)-one] gave an IC50 of under 1000 nM.
`Nc1nc2ccc3c(Br)c(N)c(Br)cc3c2c(=O)[nH]1` [3,8-Diamino-7,9-dibromobenzo(f)quinazolin-1(2H)-one] was tested, and the IC50 was 1000 to 300000 nM.
